Among the data in the Kinase Knowledgebase extract (Sharma et al. 2016) are IC50 values, retold here.

What is called IC50 is the point on the concentration scale where inhibition reaches its midpoint. Low values mean greater potency, high ones weaker potency.

In the assay the target is PIK3CG (human) (UniProt P48736). The assay is described as follows: Assessment of PIK3CG Kinase Activity.
Sequence of PIK3CG (human) (P48736 whole entry, looked up): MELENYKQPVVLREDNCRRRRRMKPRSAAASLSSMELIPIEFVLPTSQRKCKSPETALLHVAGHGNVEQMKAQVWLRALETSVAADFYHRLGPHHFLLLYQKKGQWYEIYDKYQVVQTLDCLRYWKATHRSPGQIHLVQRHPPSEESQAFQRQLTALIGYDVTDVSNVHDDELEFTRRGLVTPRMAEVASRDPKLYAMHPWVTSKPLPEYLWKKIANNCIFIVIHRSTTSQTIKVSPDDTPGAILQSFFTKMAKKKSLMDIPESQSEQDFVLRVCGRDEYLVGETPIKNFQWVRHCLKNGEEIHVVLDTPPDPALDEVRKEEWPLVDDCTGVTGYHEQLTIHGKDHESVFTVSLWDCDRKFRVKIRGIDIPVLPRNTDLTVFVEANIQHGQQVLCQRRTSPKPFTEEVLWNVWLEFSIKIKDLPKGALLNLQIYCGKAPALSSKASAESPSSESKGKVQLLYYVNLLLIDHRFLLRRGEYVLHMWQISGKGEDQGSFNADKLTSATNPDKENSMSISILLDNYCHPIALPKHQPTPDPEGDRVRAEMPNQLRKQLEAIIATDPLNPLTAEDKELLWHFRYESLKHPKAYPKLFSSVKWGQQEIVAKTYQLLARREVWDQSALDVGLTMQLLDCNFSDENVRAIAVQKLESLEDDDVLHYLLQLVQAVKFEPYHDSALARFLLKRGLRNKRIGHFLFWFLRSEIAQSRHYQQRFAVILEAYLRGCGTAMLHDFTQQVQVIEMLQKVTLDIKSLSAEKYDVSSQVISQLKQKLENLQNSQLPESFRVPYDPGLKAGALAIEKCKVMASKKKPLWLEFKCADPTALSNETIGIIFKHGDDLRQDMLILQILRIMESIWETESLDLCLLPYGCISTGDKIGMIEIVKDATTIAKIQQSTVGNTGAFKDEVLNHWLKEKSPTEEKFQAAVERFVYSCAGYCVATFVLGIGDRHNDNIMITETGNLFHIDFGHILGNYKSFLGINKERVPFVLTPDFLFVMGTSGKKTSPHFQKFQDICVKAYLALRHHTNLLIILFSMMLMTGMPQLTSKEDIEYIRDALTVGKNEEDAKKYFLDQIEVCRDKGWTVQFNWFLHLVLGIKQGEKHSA

Regarding `CN(C)CCNC(=O)Nc1nc2c(s1)-c1c(c(-c3cccnc3)nn1-c1ccccc1Cl)CC2`, the IC50 is below 800 nM. The result for `O=C(NCc1ccc2cc[nH]c2c1)Nc1nc2c(s1)-c1c(c(-c3cccnc3)nn1-c1ccccc1Cl)CC2` reads below 800 nM; that for `CN1CCC(CNC(=O)Nc2nc3c(s2)-c2c(c(-c4cccnc4)nn2-c2ccccc2Cl)CC3)CC1`, below 800 nM.

As to `N[C@@H]1CC[C@@H](NC(=O)Nc2nc3c(s2)-c2c(c(-c4ccccc4)nn2-c2ccccc2Cl)CC3)C1`, the IC50 is below 800 nM. The result for `O=C(NCCc1ccncc1)Nc1nc2c(s1)-c1c(c(-c3cccnc3)nn1-c1ccccc1Cl)CC2` reads below 800 nM; that for `CC(C)COC(=O)N1CCC[C@@H]1CNC(=O)Nc1nc2c(s1)-c1c(c(-c3cncnc3)nn1-c1ccccc1Cl)CC2`, below 800 nM.

Take `C[C@H](NC(=O)Nc1nc2c(s1)-c1c(c(-c3ccccc3)nn1-c1ccccc1Cl)CC2)C(=O)N1CCOCC1`: the IC50 is below 800 nM. The result for `O=C(NCc1cccc(-c2ccccc2)c1)Nc1nc2c(s1)-c1c(c(-c3cncnc3)nn1-c1ccccc1Cl)CC2` reads below 800 nM; that for `CN(C)c1cccc(CNC(=O)Nc2nc3c(s2)-c2c(c(C4CC4)nn2-c2ccccc2Cl)CC3)c1`, below 800 nM. The same measure for `O=C(NC[C@H]1CCCN1C(=O)N1CCCCC1)Nc1nc2c(s1)-c1c(c(-c3cncnc3)nn1-c1ccccc1Cl)CC2`: below 800 nM. The same measure for `CS(=O)(=O)NCCNC(=O)Nc1nc2c(s1)-c1c(c(-c3ccccc3)nn1-c1ccccc1Cl)CC2`: below 800 nM; for `CN(Cc1cccc(CNC(=O)Nc2nc3c(s2)-c2c(c(-c4cccnc4)nn2-c2ccccc2Cl)CC3)c1)C(=O)OC(C)(C)C`: below 800 nM. For the compound `O=C(NCCn1ccnc1)Nc1nc2c(s1)-c1c(c(-c3cncnc3)nn1-c1ccccc1Cl)CC2`, the IC50 was below 800 nM. The result for `CNC(=O)Nc1nc2c(s1)-c1c(c(-c3cccnc3)nn1-c1ccccc1Cl)CC2` reads below 800 nM; that for `O=C(NCc1ccc2c(c1)OCO2)Nc1nc2c(s1)-c1c(c(-c3cncnc3)nn1-c1ccccc1Cl)CC2`, below 800 nM; that for `CC1CC(c2ccc(O)cc2)CN1C(=O)Nc1nc2c(s1)-c1c(c(-c3cccnc3)nn1-c1ccccc1Cl)CC2` (configuration not stated), below 800 nM.

Compound `O=C(NCCNS(=O)(=O)c1ccccn1)Nc1nc2c(s1)-c1c(c(-c3ccccc3)nn1-c1ccccc1Cl)CC2` came in with an IC50 below 800 nM. In turn, `O=C(NCCc1nc(C2CC2)no1)Nc1nc2c(s1)-c1c(c(-c3ccccc3)nn1-c1cccc(Cl)c1)CC2` registered an IC50 below 800 nM. The same measure for `CS(=O)(=O)c1ccc(CNC(=O)Nc2nc3c(s2)-c2c(c(-c4cncnc4)nn2-c2ccccc2Cl)CC3)cc1`: below 800 nM. The same measure for `O=C(NCCN1CCNC1=O)Nc1nc2c(s1)-c1c(c(-c3ccccc3)nn1-c1ccccc1Cl)CC2`: below 800 nM; for `O=C(NCCc1nc(C2CC2)no1)Nc1nc2c(s1)-c1c(c(Nc3ccccn3)nn1-c1ccccc1)CC2`: below 800 nM; for `CNC(=O)[C@@H]1CCCC[C@H]1NC(=O)Nc1nc2c(s1)-c1c(c(-c3ccccc3)nn1-c1ccccc1Cl)CC2`: below 800 nM.

With `CC(C)(CNc1ncccn1)NC(=O)Nc1nc2c(s1)-c1c(c(-c3cccnc3)nn1-c1ccccc1Cl)CC2`, the IC50 is below 800 nM. Compound `CC(C)(C)OC(=O)CCNC(=O)Nc1nc2c(s1)-c1c(c(-c3ccccc3)nn1-c1ccccc1Cl)CC2` had an IC50 below 800 nM. The same measure for `CN1CCN(c2ccc(NC(=O)Nc3nc4c(s3)-c3c(c(-c5cncnc5)nn3-c3ccccc3F)CC4)cc2)CC1`: below 800 nM; for `NC(=O)c1cccc(CNC(=O)Nc2nc3c(s2)-c2c(c(-c4cncnc4)nn2-c2ccccc2Cl)CC3)c1`: below 800 nM; for `CC(=O)N(C)c1cccc(CNC(=O)Nc2nc3c(s2)-c2c(c(-c4cccnc4)nn2-c2ccccc2Cl)CC3)c1`: below 800 nM. Turning to `O=C(Nc1nc2c(s1)-c1c(c(-c3cccnc3)nn1-c1ccccc1Cl)CC2)NC1(c2nc3ccc(Cl)cc3[nH]2)CCCCC1`, the IC50 is below 800 nM. The result for `O=C(NCCN1CCNC1=O)Nc1nc2c(s1)-c1c(c(-c3cccnc3)nn1-c1ccccc1Cl)CC2` reads below 800 nM. In the case of `CN(C)C(=O)CCNC(=O)Nc1nc2c(s1)-c1c(c(-c3cccnc3)nn1-c1ccccc1Cl)CC2`, the IC50 was below 800 nM. On to `NC(=O)N1Cc2ccc(CNC(=O)Nc3nc4c(s3)-c3c(c(-c5cccnc5)nn3-c3ccccc3Cl)CC4)cc2C1`, for which the IC50 was below 800 nM.

`O=C(NCc1ccc(N2CCNC2=O)cc1)Nc1nc2c(s1)-c1c(c(-c3ccccc3)nn1-c1cccc(Cl)c1)CC2` had an IC50 below 800 nM. With `CCc1noc(CCNC(=O)Nc2nc3c(s2)-c2c(c(C4CC4)nn2-c2ccccc2Cl)CC3)n1`, the IC50 was below 800 nM. The same measure for `CCn1cnc(CCNC(=O)Nc2nc3c(s2)-c2c(c(-c4cccnc4)nn2C2CCN(C)CC2)CC3)c1`: below 800 nM; for `CN(C)C(=O)CNC(=O)Nc1nc2c(s1)-c1c(c(-c3ccccc3)nn1-c1ccccc1Cl)CC2`: below 800 nM. The same measure for `CCc1cnc(CCNC(=O)Nc2nc3c(s2)-c2c(c(-c4cncnc4)nn2C2CCN(C)CC2)CC3)o1`: below 800 nM; for `Cc1c[nH]c(CCNC(=O)Nc2nc3c(s2)-c2c(c(-c4cccnc4)nn2-c2ccccc2Cl)CC3)n1`: below 800 nM. The same measure for `CN[C@@H](C)C(=O)N1CCC[C@@H]1CNC(=O)Nc1nc2c(s1)-c1c(c(-c3cncnc3)nn1-c1ccccc1Cl)CC2`: below 800 nM; for `Cc1nn(C)cc1CNC(=O)Nc1nc2c(s1)-c1c(c(-c3cccnc3)nn1-c1ccccc1Cl)CC2`: below 800 nM; for `CN1CCN(CCNC(=O)Nc2nc3c(s2)-c2c(c(-c4cncnc4)nn2-c2ccccc2Cl)CC3)CC1`: below 800 nM.

Regarding `CN1CCN(CCNC(=O)Nc2nc3c(s2)-c2c(c(-c4cncnc4)nn2-c2ccccc2F)CC3)CC1`, the IC50 is below 800 nM. The same measure for `CCCn1cnc(CCNC(=O)Nc2nc3c(s2)-c2c(c(-c4cncnc4)nn2-c2ccccc2Cl)CC3)c1`: below 800 nM; for `CC(C)(C)OC(=O)N1CCC[C@@H]1CNC(=O)Nc1nc2c(s1)-c1c(c(-c3ccccc3)nn1-c1ccccc1F)CC2`: below 800 nM.

Regarding `C[C@@H](NC(=O)Nc1nc2c(s1)-c1c(c(-c3ccccc3)nn1-c1ccccc1Cl)CC2)C(=O)N1CCOCC1`, the IC50 is below 800 nM. The same measure for `CC(C)(C)OC(=O)N1CCCC(NC(=O)Nc2nc3c(s2)-c2c(c(-c4cncnc4)nn2-c2ccccc2Cl)CC3)C1` (configuration not stated): below 800 nM; for `Cc1nc[nH]c1-c1cccc(CNC(=O)Nc2nc3c(s2)-c2c(c(-c4cccnc4)nn2-c2ccccc2Cl)CC3)c1`: below 800 nM. Turning to `NC(=O)Nc1cccc(CNC(=O)Nc2nc3c(s2)-c2c(c(-c4cccnc4)nn2-c2ccccc2Cl)CC3)c1`, the IC50 was below 800 nM. The same measure for `O=C(NCC1CCCNC1)Nc1nc2c(s1)-c1c(c(-c3cncnc3)nn1-c1ccccc1Cl)CC2` (configuration not stated): below 800 nM; for `CC(C)c1cccc(CNC(=O)Nc2nc3c(s2)-c2c(c(-c4cccnc4)nn2-c2ccccc2Cl)CC3)c1`: below 800 nM; for `CN1CCC(n2nc(-c3cccnc3)c3c2-c2sc(NC(=O)NCc4cccc(N5CCNC5=O)c4)nc2CC3)CC1`: below 800 nM.

`CCc1cnc(CCNC(=O)Nc2nc3c(s2)-c2c(c(-c4cccnc4)nn2C2CCN(C4CCCC4)CC2)CC3)o1`: the half-maximal inhibitory concentration (IC50) is below 800 nM.

As for `CCc1csc(CCNC(=O)Nc2nc3c(s2)-c2c(c(-c4ccccc4)nn2-c2cccc(Cl)c2)CC3)n1`, the IC50 was below 800 nM. The result for `CCc1cnc(CCNC(=O)Nc2nc3c(s2)-c2c(c(C4CC4)nn2-c2ccccc2Cl)CC3)o1` reads below 800 nM; that for `CC(C)(C)OC(=O)N1CCC[C@H]1CNC(=O)Nc1nc2c(s1)-c1c(c(-c3cncnc3)nn1-c1ccccc1F)CC2`, below 800 nM; that for `O=C(NC[C@H]1CCCN1C(=O)Cc1ccccc1)Nc1nc2c(s1)-c1c(c(-c3cncnc3)nn1-c1ccccc1Cl)CC2`, below 800 nM. The same measure for `CC(=O)NC1CCN(C(=O)Nc2nc3c(s2)-c2c(c(-c4cccnc4)nn2-c2ccccc2Cl)CC3)C1` (configuration not stated): below 800 nM; for `Cn1cccc1CCNC(=O)Nc1nc2c(s1)-c1c(c(-c3cccnc3)nn1-c1ccccc1Cl)CC2`: below 800 nM.
